Article PMC10005185, “Structure-guided engineering of a receptor-agonist pair for inducible activation of the ABA adaptive response to drought” (Science Advances, 2023)
Read-outs that look alike come from different tables or passages of the source.

Key:
[1] = molecular target: T1, ΔNHAB1 with AtPYL5 (Arabidopsis thaliana, UniProt Q9FLB1); experiment: PP2C inhibition assay, HAB1 with AtPYL5; assay type: biochemical; conditions: read-out: inhibition of HAB1
T1 construct: His; made in house
Method: (§1) His-tagged receptors and phosphatases were purified using nickel–nitrilotriacetic acid (Ni-NTA) affinity chromatography. Protein integrity was analyzed by SDS–polyacrylamide gel electrophoresis, followed by InstantBlue staining. Phosphatase activity was measured using p-Nitrophenyl Phosphate (pNPP) (25 mM) as substrate, 10 mM MnCl2,1 μM PP2C, and 2 μM of the indicated receptors. Proteins were incubated with the ligands for 10 min at room temperature. pNPP was then added to start the reactions, and the absorbance at 405 nm was monitored for 20 min in a ViktorX5 plate reader. Assays were repeated twice. For dose-response experiments, IC50 values were obtained with GraphPad Prism 9 using a nonlinear regression curve fit. Each ligand concentration was tested in triplicate. Phosphatase activity of ABI1 was measured using RRA(phosphoT)VA peptide as a substrate, as described ([27]).

[2] = test system: Arabidopsis thaliana seeds (WT Col-0, CsPYL1 and CsPYL1^5m lines); experiment: Seed germination assay; assay type: in vivo; conditions: for IC50: Arabidopsis thaliana, read-out: Germination IC50
Method: For seed germination assays, seeds were stratified in the dark at 4°C for 3 days. Approximately 100 seeds of each genotype were sown on MS plates supplemented with six different ligand concentrations. The experiments were repeated three times. To score seed germination, radical emergence was analyzed at 24 hours after sowing.

[3] = test system: Arabidopsis thaliana plants (WT Col-0, CsPYL1^5m lines); experiment: Whole-plant gas exchange, stomatal conductance (Gs); assay type: in vivo
Method: A. thaliana seeds were planted in specific gas exchange pots, where above- and below-ground parts can be separated by glass into 2:1 (v:v) peat:vermiculite mixture. The plants were grown in growth chambers (Snijders Scientific, Drogenbos, Belgium) at 12/12 photoperiod, 23/18°C temperature, 160 μmol m^−2 s^−1 light, and 70% relative humidity and were 23 to 28 days old during gas exchange experiments. Whole-rosette stomatal conductances were recorded with an eight-chamber custom-built temperature-controlled gas exchange device as described before ([72]). Plants were inserted into the measurement cuvettes and allowed to stabilize at standard conditions: ambient CO2, ~420 ppm; air temperature, 24° ± 0.5°C; light, 160 μmol m^−2 s^−1; relative air humidity, 66 ± 3%. For sprayings, plants were removed from gas exchange cuvettes, sprayed with respective solutions, and put back into the cuvettes for stomatal conductance recordings for 56 min. To check the long-term effect of compounds on plants, stomatal conductance measurements were performed about 24 and 48 hours after sprayings. In the meantime, plants were kept in growth chambers as described above. Photographs of plants were taken after the experiment, and leaf rosette area was calculated using ImageJ 1.37v [National Institutes of Health (NIH), USA]. Stomatal conductance for water vapor was calculated with a custom-written program as described ([72]).

[4] = test system: Arabidopsis thaliana seedlings; experiment: Root growth assay; assay type: in vivo; conditions: 10 μM
Method: Seedlings were grown on vertically oriented Murashige and Skoog (MS) plates for 4 to 5 days. Afterward, seedlings were transferred to MS supplemented with the indicated concentrations of the different ligands and kept on vertical orientation. Ten days later, the plates were scanned on a flatbed scanner to produce image files suitable for quantitative analysis of root growth using the NIH Image software ImageJ. The experiment was performed in triplicate (n = 13 to 16). Statistical comparisons were performed by either pairwise t tests or one-way ANOVA using GraphPad Prism 9.

[5] = molecular target: T2, ABI1 with AtPYR1 (Arabidopsis thaliana, UniProt O49686); experiment: PP2C inhibition assay, ABI1 with AtPYR1; assay type: biochemical; conditions: 1 µM phosphatase:2 µM receptor; read-out: IC50 of ABI1 with AtPYR1
T2 construct: His; made in house
T2 sequence (O49686 whole entry): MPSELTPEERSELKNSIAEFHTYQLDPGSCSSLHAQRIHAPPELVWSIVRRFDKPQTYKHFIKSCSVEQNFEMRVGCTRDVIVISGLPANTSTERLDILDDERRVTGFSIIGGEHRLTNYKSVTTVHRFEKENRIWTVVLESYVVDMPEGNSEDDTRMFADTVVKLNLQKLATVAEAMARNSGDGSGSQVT
T2 sequence (P49597 whole entry partner): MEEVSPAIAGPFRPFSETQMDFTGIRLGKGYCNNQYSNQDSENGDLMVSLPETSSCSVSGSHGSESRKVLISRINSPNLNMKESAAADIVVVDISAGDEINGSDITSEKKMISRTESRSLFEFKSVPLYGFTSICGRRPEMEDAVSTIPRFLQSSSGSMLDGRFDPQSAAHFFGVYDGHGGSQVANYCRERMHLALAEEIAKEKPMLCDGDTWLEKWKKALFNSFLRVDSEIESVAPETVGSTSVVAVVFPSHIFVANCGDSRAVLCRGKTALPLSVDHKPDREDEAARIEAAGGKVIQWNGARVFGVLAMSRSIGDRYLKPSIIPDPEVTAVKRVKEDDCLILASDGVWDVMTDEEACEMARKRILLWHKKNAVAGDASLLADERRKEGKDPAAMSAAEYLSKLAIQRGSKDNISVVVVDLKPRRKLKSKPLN
Method: as §1, with “([27]). […]” for “([27]).”
(D) Dose response analysis of iSB09 or ABA-dependent inhibition of ABI1 (blue and black lines, respectively) in presence of either AtPYL1 or AtPYR1. Values (average of duplicates) show PP2C activity after incubation with the indicated concentration of ligand and receptor at 1:2 ratio (1 µM phosphatase:2 µM receptor). […]
whereas with AtPYR1 was 200 nM and 213 nM, for ABA and iSB09, respectively. Ligands were assayed

[6] = test system: RAB18/RD29B gene expression; experiment: RT-qPCR of RAB18/RD29B expression; set-up: species or system Arabidopsis thaliana; conditions: in vivo
Method: RNA was extracted from seedlings using NucleoSpin RNA Plant kit from Machery-Nagel, following the manufacturer’s instructions. Complementary DNA (cDNA) was synthesized from 1 μg of total purified RNA using 30 U of RevertAid Reverse Transcriptase (Thermo Fisher Scientific). Reverse transcription quantitative polymerase chain reaction (RT-qPCR) was performed using PyroTaq EvaGreen qPCR Master Mix 5X from Cultek, which includes EvaGreen Dye and carboxy-X-rhodamine (ROX) as a passive reference dye. The primer pairs used for this analysis were described previously ([42]). qPCR was performed in a QuantStudio 3 (Applied Biosystems). Relative quantification of gene expression data was carried out using the 2^−ΔΔCt or comparative Ct method. Expression levels were normalized using the Ct values obtained for the actin-8 gene. The presence of a single PCR product was further verified by dissociation analysis in all amplifications. The mean and SD of three independent experiments are shown.

[7] = molecular target: T3, ΔNHAB1 with AtPYL1 (Arabidopsis thaliana, UniProt Q8VZS8); experiment: PP2C inhibition assay, HAB1 with AtPYL1; assay type: biochemical; conditions: read-out: inhibition of HAB1
T3 construct: His; made in house
T3 sequence (Q8VZS8 whole entry, stated change not applied): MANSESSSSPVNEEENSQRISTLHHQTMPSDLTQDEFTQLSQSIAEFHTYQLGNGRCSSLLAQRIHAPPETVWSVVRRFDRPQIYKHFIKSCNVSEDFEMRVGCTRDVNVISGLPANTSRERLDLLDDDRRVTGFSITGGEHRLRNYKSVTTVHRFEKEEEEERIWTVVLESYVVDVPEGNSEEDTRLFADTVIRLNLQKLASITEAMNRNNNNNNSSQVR
Method: as §1

[8] = test system: MAPKKK18 promoter-LUC reporter; experiment: pMAPKKK18-LUC luciferase reporter assay; assay type: in vivo, Arabidopsis thaliana; conditions: 100 μM, 6 hours
Method: […]18-LUC seedlings were grown in 24-well plates (25 to 35 seeds per well) filled with 1 ml of liquid MS medium for 7 days. MS medium was replaced with fresh medium supplemented with 100 μM D-luciferin, potassium salt (GoldBio), and the indicated treatments with iSB07, iSB09, or ABA. Seedlings were incubated for 6 hours, and luminescence was recorded with a LAS-3000 imager (Fujifilm) equipped with a charge-coupled device camera using 2-min exposures. Eight-bit images were transformed in rainbow false color and quantified using Fiji. The experiment was repeated at least twice.

T1 sequence (Q9FLB1 whole entry, stated change not applied): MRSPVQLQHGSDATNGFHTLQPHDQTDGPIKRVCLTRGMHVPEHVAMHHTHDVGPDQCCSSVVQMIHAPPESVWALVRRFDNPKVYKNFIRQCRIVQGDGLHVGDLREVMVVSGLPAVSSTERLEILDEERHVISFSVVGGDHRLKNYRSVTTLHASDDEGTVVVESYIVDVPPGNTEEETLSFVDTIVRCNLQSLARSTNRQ

**Q.** What does the source list for `CCn1c(=O)cc(C)c2cc(CNS(=O)(=O)c3ccccc3)ccc21` [iSB09]?
**A.** inhibition at 1 µM [1]: 60 to 70%; IC50 ([2]; WT Col-0): 4390 nM; IC50 ([2]; line expressing CsPYL1): 1360 nM; IC50 ([2]; line expressing CsPYL1^5m): 290 nM; inhibition of seed germination, iSB09 relative to iSB07 ([2]; plants expressing CsPYL1^5m): threefold more effective; effect on stomatal conductance (Gs) ([3]; WT, spraying with 5 μM): nonsignificant; reduction of stomatal conductance (Gs) ([3]; WT, spraying with 20 μM): effective; duration of the effect on Gs ([3]; transgenic lines, 5 μM): ≥ 48 h; reduction of Gs 24 and 48 hours after spraying ([3]; transgenic lines, 5 μM): significantly evident; inhibition of root growth ([4]; CsPYL1^5m lines): marked inhibition; inhibition of root growth ([4]; WT plants): did not significantly inhibit; IC50 [5]: 213 nM; RAB18/RD29B up-regulation in CsPYL1^5m plants relative to WT plants [6]: markedly higher; inhibition at 1 µM [7]: 60 to 70%; induction of LUC relative to 25 μM ABA [8]: approximately twofold higher
